Measurements reported in US20200010910A1, “Cytotoxic Chemotherapy-Based Predictive Assays for Acute Myeloid Leukemia” (The Regents of The University of California, priority 2017, published 2020).

How the values were obtained:
BT 549 = test: MTT assay, carboplatin cytotoxicity; format: cell-based, human; settings: 72 hours
Description: (§1) Six breast cancer cell lines were tested. […] The cell lines were purchased from ATCC, and cultured in the recommended media. IC50 values were determined for each cell line using the MTT assay (Henderson et al., International Journal of Cancer 2011) after incubating cells for 72 hours with different concentrations of carboplatin. [^14C] carboplatin (53 mCi/mmol) was purchased from the GE Healthcare (Waukesha, Wis.) and further purified at Moravek Biochemical (Brea, Calif.). Unlabeled carboplatin (USP Pharmaceutical Grade) was used to minimize the usage of radiocarbon and achieve the specific activities required for microdoses and therapeutic doses.

Hs 578T = test: MTT assay, carboplatin cytotoxicity; format: cell-based, human; settings: 72 hours
Description: as §1

MCF-7 = test: MTT assay, carboplatin cytotoxicity; format: cell-based, human; settings: 72 hours
Description: as §1

MDA MB 231 = test: MTT assay, carboplatin cytotoxicity; format: cell-based, human; settings: 72 hours
Description: as §1

MDA MB 468 = test: MTT assay, carboplatin cytotoxicity; format: cell-based, human; settings: 72 hours
Description: as §1

T47D = test: MTT assay, carboplatin cytotoxicity; format: cell-based, human; settings: 72 hours
Description: as §1

[1] = system: six breast cancer cell lines; test: carboplatin-DNA monoadducts by AMS in cell culture; format: cell-based, human; settings: 4 hours exposure, range over cell lines and time points
Description: Cells were seeded in 60-mm dishes at a density of 1×10^6 cells/dish and allowed to attach overnight in a 37° C. humidified atmosphere containing 5% C02. Cells were treated with 1 μM (a relevant microdose concentration) and 100 μM (a therapeutically relevant concentration) carboplatin. Both the microdose and the therapeutic cell culture treatments included 0.3 μM of [^14C]carboplatin at a final concentration 50,000 dpm/ml for 4 hours, followed by washing and incubation in culture medium free of carboplatin. […] The number of carboplatin-DNA monoadducts was calculated based on the ^14C content in genomic DNA as measured by AMS. […] The concentration of the DNA was determined by its absorption at 260 nm using a Nanodrop spectrophotometer, and then the samples were stored frozen at −80° C. For AMS analysis, a DNA sample was thawed, mixed well by vortexing, and 1-10 μg of DNA was then submitted for AMS analysis, which includes the addition of 1.0 mg of tributyrin as a carrier, followed by combustion to CO2 and reduction to graphite according to published protocols (Ognibene, Ted J., et al. “A high-throughput method for the conversion of CO2 obtained from biochemical samples to graphite in septa-sealed vials for quantification of 14C via accelerator mass spectrometry.” Analytical chemistry 75.9 (2003): 2192-2196). […]

HT1197 = test: MTT assay IC50, bladder cancer cell line; format: cell-based
From the text: (§2) If these diadducts are the predominant DNA lesion responsible for cell death, then the IC50 of the two drugs should be linearly related. Thus, we measured the IC50 of the six NSCLC cell lines from Example 2 to both cisplatin and carboplatin to determine if the sensitivity of these six NSCLC cell lines to the two drugs are correlated. We observed a statistically significant linear correlation of the cytotoxicity of these two drugs in the 6 cell lines used in this study (R^2=0.72, p=0.033, FIG. 9A) and also to six additional ATCC bladder cancer cell lines. (R^2=0.72, p=0.033), FIG. 9B).

J82 = test: MTT assay IC50, bladder cancer cell line; format: cell-based
From the text: as §2

RT4 = test: MTT assay IC50, bladder cancer cell line; format: cell-based
From the text: as §2

T24 = test: MTT assay IC50, bladder cancer cell line; format: cell-based
From the text: as §2

TCCSUP = test: MTT assay IC50, bladder cancer cell line; format: cell-based
From the text: as §2

[2] = human plasma pharmacokinetics of [14C]carboplatin; format: in vivo
Description: Two of the bladder cancer patients received two doses of [^14C]carboplatin, including the initial diagnostic microdose and a second microdose at the time of full therapeutic dose. This allowed us to compare the pharmacokinetics of carboplatin in plasma after both microdosing and therapeutic dosing (FIG. 11A). […] Therefore, microdosing and therapeutic dosing yield similar carboplatin pharmacokinetics in human patients.
The pharmacokinetics of carboplatin administered as a microdose was assessed in four patients (two with bladder cancer and two with NSLC) for the purpose of comparing interpatient variability and establishing the optimum time point for tumor biopsy sample acquisition.

## N.N.O=C([O-])C1(C(=O)[O-])CCC1.[Pt+2] [carboplatin]
BT 549
  IC50: 68 µM
Hs 578T
  IC50: 44 µM
MCF-7
  IC50: 137 µM
MDA MB 231
  IC50: 250 µM
MDA MB 468
  IC50: 44 µM
T47D
  IC50: 250 µM
[1]; microdose 1 μM carboplatin
  DNA damage concentrations (carboplatin-DNA monoadducts): 1-15 monoadducts per 10^8 nt
[1]; therapeutic dose 100 μM carboplatin
  DNA damage concentrations (carboplatin-DNA monoadducts): 100-1500 monoadducts per 10^8 nt
HT1197
  IC50: 84.5 ± 24.6 µM
J82
  IC50: 168 ± 19.9 µM
RT4
  IC50: 56.9 ± 11.2 µM
T24
  IC50: 42.5 ± 6.99 µM
TCCSUP
  IC50: 91.5 ± 6.81 µM
[2]; microdose, four patients
  plasma half-life: a few hours
  time to essential clearance from the blood: ≤ 24 h
[2]; two bladder cancer patients, 24 h
  difference in plasma elimination kinetics between therapeutic and microdoses: less than 2 fold
